In patent publication US6485756B1, “Stable, homogeneous natural product extracts containing polar and apolar fractions” (Collaborative Technologies, Inc., priority 1999, dated 2002):
Where “and” joins values, the source holds several entries; their conditions need not be identical. Equal values may be shown once.

Columns and labels:
[1] = tested on: Cloudman S91 melanocytes; assay: Melanocyte pigmentation assay; assay type: cell-based; details: conc. 30 μm; positive control
Method: Melanocyte Pigmentation Assay
The following materials were used in the melanocyte pigmentation assay. Cloudman S91 cells (36-1-38C8-16) were obtained from American Type Culture Collection. Dulbecco's Modified Eagle's Medium (“DMEM”; 11885-076), heat-inactivated horse serum (26050-088), heat-inactivated fetal bovine serum (10082-147) and 5000 units/ml penicillin/50 μg/ml streptomycin (15070-063) were obtained from Gibco BRL. Phosphate-buffered saline (PBS; 1000-3), dimethyl sulfoxide (D2650), hydroquinone (H9003), α-melanocyte stimulating hormone (M4135), trichloroacetic acid (T9159) and sodium hydroxide (S8045) were obtained from Sigma. Optical densities were determined using a Dynatech MR5000 spectrophotometer.
The melanocyte pigmentation assay measures a test sample's ability to inhibit pigmentation. […] After a 5-day treatment period with each condition tested in triplicate wells, the cells were harvested by washing with PBS and adding 5% trichloroacetic acid to each well. […] 200 μl of each digestion mixture was then transferred to a well of a 96-well microtiter plate and optical densities were read at 405 nm.
Inhibition of pigmentation is expressed as the percentage decrease in optical density compared to that for untreated cells (no test sample or hydroquinone). […]

[2] = Lipid Peroxidation assay; assay type: biochemical; details: for OD532 at indicated time (min) 0: 0 min; for OD532 at indicated time (min) 60: 60 min; for OD532 at indicated time (min) 120: 120 min; for OD532 at indicated time (min) 240: 240 min
Method: Lipid Peroxidation Assay Thiobarbituric acid (“TBA”; […]), sodium dodecyl sulfate ([…]), butylated hydroxytoluene (B1378), […]) and phosphate-buffered saline (“PBS”; 1000-3) were obtained from Sigma. Lecithin (429415) was obtained from Calbiochem. Ethanol (122898) was obtained from Aaper Alcohol and Chemical Co. Vitamin C (95209) was obtained from Fluka. Ferric chloride (AR5029) was obtained from Mallinckrodt. Optical densities were determined using a SpectraMax 250 spectrophotometer (Molecular Devices). Ultraviolet irradiation was performed using a model VWR […] Chromato-Vue transilluminator (VWR Scientific). The Lipid Peroxidation assay measures inhibition of UV-induced lipid oxidation. The reaction was performed at room temperature by irradiating liposome solutions, containing varying concentrations of test samples, with ultraviolet C light. The extent of lipid peroxidation induced by the UV light was determined by measuring the consequent production of malondialdehyde that results from breakdown of oxidized lipid. […] Vitamin C, a peroxyl radical scavenger, was included in each assay as a control for inhibition of lipid oxidation. Duplicate aliquots of the irradiation mixtures were harvested at several time points and their malondialdehyde contents were measured using the “thiobarbituric acid reaction”. […] The mixtures were heated at 100° C. for 15 minutes, cooled to room temperature and their absorbencies were read at 532 and 650 nm. The readings at 650 nm were subtracted from those at 532 nm to correct for turbidity. These corrected absorbencies were plotted as a function of irradiation time and the rate of lipid peroxidation was determined by linear regression curve fit.

[3] = tested on: Dopa Oxidase Activity of a Mushroom Tyrosinase; details: Shin et al., BBRC 1998; cited from earlier work
[4] = molecular target: T1, Human Leukocyte Elastase (Homo sapiens, UniProt P08246); details: Ying et al., Biochem. J. 1991; cited from earlier work
T1 sequence (P08246 30-267): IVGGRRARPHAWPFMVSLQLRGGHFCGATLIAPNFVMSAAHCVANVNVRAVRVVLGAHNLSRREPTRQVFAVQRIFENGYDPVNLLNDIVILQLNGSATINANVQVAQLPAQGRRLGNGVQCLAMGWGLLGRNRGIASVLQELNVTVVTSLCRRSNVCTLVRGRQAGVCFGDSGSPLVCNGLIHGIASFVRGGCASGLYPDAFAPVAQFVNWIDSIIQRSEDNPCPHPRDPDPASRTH

In the case of `Oc1ccc(O)cc1` [hydroquinone], the “% inhibition” value [1] is reported as 28% and the “Culture pigmentation (OD405nm) mean” value [1] is reported as 0.747.

With `O=C1O[C@H]([C@@H](O)CO)C(O)=C1O` [Vitamin C] the “% antioxidant effect” value ([2]; Sample conc. 0.03 %) was 82% and 90%, the “Rate of Lipid Peroxidation” value ([2]; Sample conc. 0.03 %) was 54 MOD532/min and 30 MOD532/min and the “OD532 at indicated time (min) 0” value ([2]; Sample conc. 0.03 %) was 0.012 and 0.014. For the same compound, the “OD532 at indicated time (min) 60” value ([2]; Sample conc. 0.03 %) was 0.013 and 0.0125, the “OD532 at indicated time (min) 120” value ([2]; Sample conc. 0.03 %) was 0.016 and 0.014 and the “OD532 at indicated time (min) 240” value ([2]; Sample conc. 0.03 %) was 0.025 and 0.0205. For the same compound, the “% antioxidant effect” value ([2]; Sample conc. 0.3 %) was 97% and 99%, the “OD532 at indicated time (min) 0” value ([2]; Sample conc. 0.3 %) was 0.011 and the “OD532 at indicated time (min) 60” value ([2]; Sample conc. 0.3 %) was 0.012 and 0.011. For the same compound, the “OD532 at indicated time (min) 120” value ([2]; Sample conc. 0.3 %) was 0.013 and 0.011 and the “OD532 at indicated time (min) 240” value ([2]; Sample conc. 0.3 %) was 0.012.

In the case of `Oc1cc(O)cc(/C=C/c2ccc(O)cc2O)c1` [oxyresveratrol], the “tyrosinase inhibition (in words)” value [3] is listed as “very potent tyrosinase inhibitor”.

For `C[C@H]1[C@H](C)CC[C@]2(C(=O)O)CC[C@]3(C)C(=CC[C@@H]4[C@@]5(C)CC[C@H](O)C(C)(C)[C@@H]5CC[C@]43C)[C@H]12` [Ursolic acid], the “elastase inhibition (in words)” value [4] is given as “potent elastase inhibitor”.
